Like-named read-outs stand apart in the source and are kept apart here.
Key:
[1] = tested on: Edema induced by carrageen in the rat; assay: Edema induced by carrageen in the rat (anti-inflammatory activity); type: in vivo, Male Sprague-Dawley rats
Description: (§1) In the experiments carried out on animals which received the SAMe orally, the drug was dissolved in physiological solution and administered by gastric probe in a volume of 0.5 ml/100 g of body weight. An equal volume of physiological solution was administered to the controls.
(§2) In the experiments in which SAMe was administered intraduodenally, the animals anesthetised with ether were subjected to laparotomy to allow the insertion into the duodenum of gelatin capsules (size 4) containing the product.
(§3) After inserting the capsule, the duodenum was sutured carefully so as not to traumatise the tissue and was then returned to its seat, the muscular and cutaneous layers then being re-composed and sutured.
(§4) The control animals received an empty gelatin capsule by the same procedure.
The antiphlogistic and analgesic activity of SAMe were evaluated by the following tests: • A. Anti-inflammatory activity • 1) Edema induced by carrageen in the rat.
Male Sprague-Dawley rats of about 170 g weight were used, having fasted since the evening preceding the experiment. Edema was induced by carrageen using the method described by Winter et al. (Proc. Soc. Exp. Biol. Med. 111, 544 (1962)).
The SAMe was administered orally one hour before the carrageen at doses of 25 and 50 mg/kg, and intraduodenally at doses of 25 and 50 mg/kg 80 minutes before the phlogogenic agent. […]

[2] = SAMe concentration in portal and aortic plasma after intestinal or oral (gastric probe) administration; type: in vivo, male Sprague-Dawley rats; settings: rat, SAMe-tri-p. toluenesulphonate, reduced by control values; for concentration at 1 h: 60 min; for concentration at 1.5 h: 90 min; for concentration at 2 h: 120 min; for concentration at 3 h: 180 min; for concentration at 4 h: 240 min
Description: The values given relate to tests carried out with SAMe-tri-p. toluenesulphonate, but substantially identical results were obtained with other known SAMe salts.
The drug concentrations in the portal or aortic plasma were evaluated as the absorption parameters.
The experiment was carried out on 72 male Sprague-Dawley rats of weight 210-260 g, which had fasted since the previous evening.
The animals, anesthetised with ether, were operated on in order to insert a capsule into the proximal jejunum. The incision in the intestinal wall was closed by ligature, and the animals were sutured.
The treatment scheme was as follows: • Intestinal administration: A capsule containing a weighed SAMe quantity corresponding to a dose of 32 mg/kg of body weight was inserted into the intestine, and 5 ml of H20/kg were administered by means of a gastric probe. • Oral administration: An empty capsule was inserted into the intestine, and 32 mg of SAMe/kg in aqueous solution (5 ml/kg) were • administered by means of a gastric probe. Controls: An empty capsule was inserted into the intestine, and 5 ml of H20/kg of body weight were administered by means of a gastric probe.
After 10, 20, 40, 60, 90, 120, 180 and 240 minutes from administration, 3 animals were sacrificed at a time in order to withdraw portal and aortic blood.
The SAMe concentrations in the plasma were determined by the Baldessarini and Kopin method (J. Neuroch. 13: 769, 1966).
The values represent the mean + standard error of 3 observations, reduced by the values found for the controls.

[3] = tested on: Reaction to heat, tail flick test in the rat; assay: Reaction to heat, tail flick test in the rat (analgesic activity); type: in vivo, male Sprague-Dawley rats
Description: as §1, §2, §3, §4
1) Reaction to heat, tail flick test in the rat.
The analgesic activity of SAMe was evaluated in male Sprague-Dawley rats of about 190 g weight by the method of D'Amour and Smith (J. Pharmacol. Exp. Theor. 71, 74 (1941)).
The SAMe was administered either orally or in gelatin capsules into the duodenum in doses of 50 and 100 mg/kg.
Morphine was used as the comparison drug and was administered under the cutis at a dose of 5 mg/kg.
The analgesic activity was determined 30, 60 and 120 minutes after administration of the drugs.
The results represent the mean + S.E. for the number of animals indicated in parentheses. The morphine was administered under the cutis to rats which received one empty capsule into the duodenum.

[4] = aortic plasma, po, 32 mg/kg aqueous solution by gastric probe, read-out: SAMe concentration in the plasma, Oral treatment, Aortic
[5] = aortic plasma, 32 mg/kg capsule into proximal jejunum, read-out: SAMe concentration in the plasma, Intestinal treatment, Aortic
[6] = portal plasma, po, 32 mg/kg aqueous solution by gastric probe, read-out: SAMe concentration in the plasma, Oral treatment, Portal
[7] = portal plasma, 32 mg/kg capsule into proximal jejunum, read-out: SAMe concentration in the plasma, Intestinal treatment, Portal

C[S+](CC[C@H](N)C(=O)[O-])C[C@H]1O[C@@H](n2cnc3c(N)ncnc32)[C@H](O)[C@@H]1O (stereo partly drawn) [SAMe, Sulpho-adenosyl-L-methionine]
edema inhibition ([1]; intraduodenal administration, 50 mg/kg, 80 minutes before the phlogogenic agent): statistically significant edema inhibition
edema development ([1]; oral administration, 25 and 50 mg/kg, one hour before the carrageen, versus controls): not able to significantly modify the edema development
concentration at 10 min [2, 4]: 1100 ng/mL
concentration at 20 min [2, 4]: 780 ng/mL
concentration at 40 min [2, 4]: 720 ng/mL
concentration at 1 h [2, 4]: 700 ng/mL
concentration at 1.5 h [2, 4]: 680 ng/mL
concentration at 2 h [2, 4]: 680 ng/mL
concentration at 3 h [2, 4]: 660 ng/mL
concentration at 4 h [2, 4]: 640 ng/mL
concentration at 10 min [2, 5]: 13100 ng/mL
concentration at 20 min [2, 5]: 8630 ng/mL
concentration at 40 min [2, 5]: 4390 ng/mL
concentration at 1 h [2, 5]: 1870 ng/mL
concentration at 1.5 h [2, 5]: 1280 ng/mL
concentration at 2 h [2, 5]: 880 ng/mL
concentration at 3 h [2, 5]: 690 ng/mL
concentration at 4 h [2, 5]: 530 ng/mL
concentration at 10 min [2, 6]: 2930 ng/mL
concentration at 20 min [2, 6]: 870 ng/mL
concentration at 40 min [2, 6]: 840 ng/mL
concentration at 1 h [2, 6]: 610 ng/mL
concentration at 1.5 h [2, 6]: 540 ng/mL
concentration at 2 h [2, 6]: 520 ng/mL
concentration at 3 h [2, 6]: 520 ng/mL
concentration at 4 h [2, 6]: 460 ng/mL
concentration at 10 min [2, 7]: 25500 ng/mL
concentration at 20 min [2, 7]: 9390 ng/mL
concentration at 40 min [2, 7]: 2990 ng/mL
concentration at 1 h [2, 7]: 2440 ng/mL
concentration at 1.5 h [2, 7]: 1540 ng/mL
concentration at 2 h [2, 7]: 770 ng/mL
concentration at 3 h [2, 7]: 770 ng/mL
concentration at 4 h [2, 7]: 640 ng/mL
Reaction time in minutes at various times after treatment ([3]; administered into the duodenum, 50 mg/kg, 30 min): 8.5 min
Reaction time in minutes at various times after treatment ([3]; administered into the duodenum, 50 mg/kg, 60 min): 8.2 min
Reaction time in minutes at various times after treatment ([3]; administered into the duodenum, 50 mg/kg, 120 min): 8.3 min
Reaction time in minutes at various times after treatment ([3]; administered into the duodenum, 50 mg/kg, T0): 4.8 min
Reaction time in minutes at various times after treatment ([3]; administered into the duodenum, 100 mg/kg, 30 min): 10.2 min
Reaction time in minutes at various times after treatment ([3]; administered into the duodenum, 100 mg/kg, 60 min): 9.6 min
Reaction time in minutes at various times after treatment ([3]; administered into the duodenum, 100 mg/kg, 120 min): 8.5 min
Reaction time in minutes at various times after treatment ([3]; administered into the duodenum, 100 mg/kg, T0): 5.0 min
Reaction time in minutes at various times after treatment ([3]; administered orally, 50 mg/kg, 30 min): 5.04 min
Reaction time in minutes at various times after treatment ([3]; administered orally, 50 mg/kg, 60 min): 4.09 min
Reaction time in minutes at various times after treatment ([3]; administered orally, 50 mg/kg, 120 min): 4.20 min
Reaction time in minutes at various times after treatment ([3]; administered orally, 50 mg/kg, T0): 4.60 min
Reaction time in minutes at various times after treatment ([3]; administered orally, 100 mg/kg, 30 min): 4.46 min
Reaction time in minutes at various times after treatment ([3]; administered orally, 100 mg/kg, 60 min): 4.73 min
Reaction time in minutes at various times after treatment ([3]; administered orally, 100 mg/kg, 120 min): 4.25 min
Reaction time in minutes at various times after treatment ([3]; administered orally, 100 mg/kg, T0): 4.41 min
reaction times, difference between treated animals and the controls ([3]; intraduodenal administration, 100 mg/kg, 30 minutes after treatment): highly significant difference (P<0.01)
reaction time towards heat with respect to the controls ([3]; oral administration, 50 and 100 mg/kg): not able to modify the reaction time towards heat

CN1CC[C@]23c4c5ccc(O)c4O[C@H]2[C@@H](O)C=C[C@H]3[C@H]1C5 [Morphine, reference compound]
analgesic activity with respect to the controls ([3]; in vivo, 5 mg/kg): powerful analgesic activity (P<0.01)

— patent EP0136464A2, “Therapeutic compositions for oral use containing stable S-Adenosy1-L-Methionine salts” (BIORESEARCH S.p.A., priority 1983, dated 1985)
